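Results reflect a 48-hour exposure of cells in 96-well plates to compound at five concentrations. The concentration for full growth arrest is given as TGI.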
Experiments:
Assay in all cases: DTP human tumour cell line panel, 48 h
[1] = system: EKVX NSCLC
[2] = system: SK-OV-3 ovarian
[3] = system: M14 melanoma
[4] = system: HCT-116 colon
[5] = system: HCC-2998 colon
[6] = system: KM12 colon
[7] = system: HOP-92 NSCLC
[8] = system: SF-295 CNS
[9] = system: NCI-H460 lung
[10] = system: PC-3 prostate
[11] = system: UACC-62 melanoma
[12] = system: T-47D breast
[13] = system: CCRF-CEM leukemia
[14] = system: HL-60(TB) leukemia
[15] = system: SNB-75 CNS
[16] = system: MDA-MB-435
[17] = system: CAKI-1 renal
[18] = system: RXF 393 renal
[19] = system: A498 renal
[20] = system: K-562 leukemia
[21] = system: NCI/ADR-RES ovarian
[22] = system: MDA-N
[23] = system: MCF7 breast
[24] = system: LOX IMVI melanoma
[25] = system: IGROV1 ovarian
[26] = system: TK-10 renal
[27] = system: SK-MEL-5 melanoma
[28] = system: SK-MEL-28 melanoma
[29] = system: ACHN renal
[30] = system: NCI-H226 lung
[31] = system: MALME-3M melanoma
[32] = system: HCT-15 colon
[33] = system: MDA-MB-231 breast
[34] = system: DU-145 prostate
[35] = system: NCI-H23 lung
[36] = system: COLO 205 colon
[37] = system: A549 NSCLC
[38] = system: UO-31 renal
[39] = system: HOP-62 NSCLC
[40] = system: OVCAR-5 ovarian
[41] = system: U251 CNS
[42] = system: SNB-19 CNS
[43] = system: OVCAR-8 ovarian
[44] = system: MOLT-4 leukemia
[45] = system: UACC-257 melanoma
[46] = system: BT-549 breast
[47] = system: OVCAR-3 ovarian
[48] = system: 786-0 renal
[49] = system: HT29 colon
[50] = system: OVCAR-4 ovarian
[51] = system: SW-620 colon
[52] = system: SK-MEL-2 melanoma
[53] = system: SN12C renal
[54] = system: SF-539 CNS
[55] = system: NCI-H522 lung
[56] = system: SF-268 CNS
[57] = system: SR leukemia
[58] = system: RPMI-8226 leukemia

COc1ccc(Cc2nc3cc([N+](=O)[O-])ccc3n2C[C@@H]2CCCN3CCCCC23)cc1 (some centres undefined)
TGI [1]: 76.5 µM | TGI [2]: 46.4 µM | TGI [3]: 27.2 µM | TGI [4]: 38.2 µM | TGI [5]: 34.1 µM | TGI [6]: 29.8 µM | TGI [7]: 76.8 µM | TGI [8]: 35.8 µM | TGI [9]: > 100 µM | TGI [10]: > 100 µM | TGI [11]: 31.3 µM | TGI [12]: > 100 µM | TGI [13]: 29.2 µM | TGI [14]: 19 µM | TGI [15]: > 100 µM | TGI [16]: 38.1 µM | TGI [17]: 45.3 µM | TGI [18]: 39.8 µM | TGI [19]: 35.2 µM | TGI [20]: 57.6 µM | TGI [21]: 60.6 µM | TGI [22]: 33.8 µM | TGI [23]: > 100 µM | TGI [24]: 36.4 µM | TGI [25]: 48.1 µM | TGI [26]: 92.8 µM | TGI [27]: 27.9 µM | TGI [28]: 35.1 µM | TGI [29]: > 100 µM | TGI [30]: > 100 µM | TGI [31]: 32.1 µM | TGI [32]: 56.5 µM | TGI [33]: 43 µM | TGI [34]: > 100 µM | TGI [35]: 87.2 µM | TGI [36]: 27 µM | TGI [37]: 35 µM | TGI [38]: 21.1 µM | TGI [39]: 43.6 µM | TGI [40]: 82 µM | TGI [41]: 50.6 µM | TGI [42]: 84.8 µM | TGI [43]: > 100 µM | TGI [44]: 60.1 µM | TGI [45]: 31.5 µM | TGI [46]: 37.5 µM | TGI [47]: 41.1 µM | TGI [48]: 40 µM | TGI [49]: 38.4 µM | TGI [50]: 61.3 µM | TGI [51]: 81.8 µM | TGI [52]: 33.2 µM

CN1CCN(CCCCN2c3ccccc3Sc3ccc(C(=O)c4ccccc4)cc32)CC1
TGI [1]: 15.5 µM | TGI [2]: 2.94 µM | TGI [3]: 3.32 µM | TGI [4]: 3.29 µM | TGI [5]: 2.94 µM | TGI [6]: 2.49 µM | TGI [7]: 4.68 µM | TGI [8]: 3.45 µM | TGI [10]: 2.83 µM | TGI [11]: 2.52 µM | TGI [12]: 45.4 µM | TGI [14]: 3.66 µM | TGI [15]: 2.58 µM | TGI [16]: 3.24 µM | TGI [53]: 3.19 µM | TGI [17]: 2.75 µM | TGI [18]: 2.57 µM | TGI [19]: 3.12 µM | TGI [20]: 2.79 µM | TGI [22]: 2.92 µM | TGI [23]: 3.65 µM | TGI [24]: 3.22 µM | TGI [25]: 3.19 µM | TGI [26]: 3.11 µM | TGI [27]: 3.08 µM | TGI [28]: 2.85 µM | TGI [29]: 3.06 µM | TGI [30]: 3.7 µM | TGI [31]: 7.3 µM | TGI [32]: 3.06 µM | TGI [33]: 3.38 µM | TGI [54]: 3.41 µM | TGI [34]: 6.73 µM | TGI [35]: 3.71 µM | TGI [36]: 3.28 µM | TGI [37]: 3.55 µM | TGI [38]: 6.27 µM | TGI [39]: 3.16 µM | TGI [40]: 7.43 µM | TGI [55]: 3.44 µM | TGI [56]: 13 µM | TGI [41]: 3.09 µM | TGI [42]: 3.45 µM | TGI [43]: 2.97 µM | TGI [44]: 3.43 µM | TGI [45]: 3.36 µM | TGI [46]: 3.04 µM | TGI [47]: 3.71 µM | TGI [57]: 4.61 µM | TGI [49]: 2.6 µM | TGI [50]: 6.13 µM | TGI [51]: 3.2 µM | TGI [52]: 3.41 µM

CO/C(N)=C(\C#N)N=Cc1cccnc1
TGI [1]: > 100 µM | TGI [2]: > 100 µM | TGI [3]: > 100 µM | TGI [4]: > 100 µM | TGI [5]: > 100 µM | TGI [6]: > 100 µM | TGI [7]: > 100 µM | TGI [8]: > 100 µM | TGI [10]: > 100 µM | TGI [58]: > 100 µM | TGI [11]: > 100 µM | TGI [12]: > 100 µM | TGI [13]: > 100 µM | TGI [14]: > 100 µM | TGI [15]: > 100 µM | TGI [16]: > 100 µM | TGI [53]: > 100 µM | TGI [17]: > 100 µM | TGI [18]: > 100 µM | TGI [19]: > 100 µM | TGI [20]: > 100 µM | TGI [21]: > 100 µM | TGI [22]: > 100 µM | TGI [23]: > 100 µM | TGI [24]: > 100 µM | TGI [25]: > 100 µM | TGI [26]: > 100 µM | TGI [27]: > 100 µM | TGI [28]: > 100 µM | TGI [30]: > 100 µM | TGI [31]: > 100 µM | TGI [32]: > 100 µM | TGI [33]: > 100 µM | TGI [54]: > 100 µM | TGI [34]: > 100 µM | TGI [35]: > 100 µM | TGI [36]: > 100 µM | TGI [37]: > 100 µM | TGI [39]: > 100 µM | TGI [40]: > 100 µM | TGI [56]: > 100 µM | TGI [41]: > 100 µM | TGI [43]: > 100 µM | TGI [44]: > 100 µM | TGI [45]: > 100 µM | TGI [46]: > 100 µM | TGI [47]: > 100 µM | TGI [48]: > 100 µM | TGI [49]: > 100 µM | TGI [50]: > 100 µM | TGI [51]: > 100 µM | TGI [52]: > 100 µM

SCCCSCCSCCCSCCS
TGI [1]: > 100 µM | TGI [2]: > 100 µM | TGI [3]: > 100 µM | TGI [4]: > 100 µM | TGI [5]: > 100 µM | TGI [6]: > 100 µM | TGI [8]: > 100 µM | TGI [9]: > 100 µM | TGI [10]: > 100 µM | TGI [11]: > 100 µM | TGI [12]: > 100 µM | TGI [13]: > 100 µM | TGI [14]: > 100 µM | TGI [15]: > 100 µM | TGI [16]: > 100 µM | TGI [53]: > 100 µM | TGI [20]: > 100 µM | TGI [21]: > 100 µM | TGI [22]: > 100 µM | TGI [23]: > 100 µM | TGI [24]: > 100 µM | TGI [25]: > 100 µM | TGI [27]: > 100 µM | TGI [28]: > 100 µM | TGI [32]: > 100 µM | TGI [33]: > 100 µM | TGI [54]: > 100 µM | TGI [34]: > 100 µM | TGI [35]: > 100 µM | TGI [36]: > 100 µM | TGI [37]: > 100 µM | TGI [38]: > 100 µM | TGI [39]: > 100 µM | TGI [40]: > 100 µM | TGI [55]: > 100 µM | TGI [56]: > 100 µM | TGI [41]: > 100 µM | TGI [42]: > 100 µM | TGI [43]: > 100 µM | TGI [44]: > 100 µM | TGI [45]: > 100 µM | TGI [46]: > 100 µM | TGI [47]: > 100 µM | TGI [57]: > 100 µM | TGI [48]: > 100 µM | TGI [49]: > 100 µM | TGI [50]: > 100 µM | TGI [51]: > 100 µM

CCNC(=S)NNC(=O)c1csc(NC(=S)NC2CCCCC2)n1
TGI [1]: > 100 µM | TGI [2]: 62.3 µM | TGI [3]: 27.1 µM | TGI [4]: 18.8 µM | TGI [5]: 23.8 µM | TGI [6]: 28 µM | TGI [8]: 40.7 µM | TGI [9]: 35.2 µM | TGI [10]: 64.5 µM | TGI [58]: 71.6 µM | TGI [11]: 27.7 µM | TGI [12]: 53.7 µM | TGI [13]: > 100 µM | TGI [16]: 21.1 µM | TGI [53]: 17.3 µM | TGI [17]: 31.1 µM | TGI [19]: 40 µM | TGI [21]: 42.4 µM | TGI [22]: 15.8 µM | TGI [23]: > 100 µM | TGI [24]: 21.4 µM | TGI [26]: > 100 µM | TGI [27]: 15.5 µM | TGI [29]: 89.8 µM | TGI [30]: > 100 µM | TGI [32]: 37.2 µM | TGI [33]: 24.9 µM | TGI [54]: 22.8 µM | TGI [34]: 45.8 µM | TGI [35]: > 100 µM | TGI [36]: 21.9 µM | TGI [37]: 67.8 µM | TGI [38]: 23.1 µM | TGI [39]: 32.4 µM | TGI [40]: > 100 µM | TGI [56]: 31.4 µM | TGI [41]: 23.7 µM | TGI [42]: > 100 µM | TGI [43]: 28.1 µM | TGI [44]: 63.5 µM | TGI [45]: 27.3 µM | TGI [46]: 36.6 µM | TGI [47]: 16.2 µM | TGI [57]: > 100 µM | TGI [48]: 25.6 µM | TGI [49]: > 100 µM | TGI [50]: 56.9 µM | TGI [51]: 19.2 µM | TGI [52]: 29.3 µM
